The source of these data is ChEMBL document CHEMBL5029145, “Discovery of AZD8154, a Dual PI3Kγδ Inhibitor for the Treatment of Asthma” (J Med Chem, 2021).

For assay [1], the target named is Phosphatidylinositol 4,5-bisphosphate 3-kinase catalytic subunit gamma isoform (Homo sapiens, UniProt P48736). Description: Inhibition of recombinant human PI3Kgamma assessed as reduction in ADP production using Dic8-PIP2 as substrate pre-treated for 15 mins followed by substrate addition measured after 60 mins by ADP-glo assay.
Chain of Phosphatidylinositol 4,5-bisphosphate 3-kinase catalytic subunit gamma isoform (Homo sapiens, UniProt P48736) (P48736 whole entry, canonical isoform): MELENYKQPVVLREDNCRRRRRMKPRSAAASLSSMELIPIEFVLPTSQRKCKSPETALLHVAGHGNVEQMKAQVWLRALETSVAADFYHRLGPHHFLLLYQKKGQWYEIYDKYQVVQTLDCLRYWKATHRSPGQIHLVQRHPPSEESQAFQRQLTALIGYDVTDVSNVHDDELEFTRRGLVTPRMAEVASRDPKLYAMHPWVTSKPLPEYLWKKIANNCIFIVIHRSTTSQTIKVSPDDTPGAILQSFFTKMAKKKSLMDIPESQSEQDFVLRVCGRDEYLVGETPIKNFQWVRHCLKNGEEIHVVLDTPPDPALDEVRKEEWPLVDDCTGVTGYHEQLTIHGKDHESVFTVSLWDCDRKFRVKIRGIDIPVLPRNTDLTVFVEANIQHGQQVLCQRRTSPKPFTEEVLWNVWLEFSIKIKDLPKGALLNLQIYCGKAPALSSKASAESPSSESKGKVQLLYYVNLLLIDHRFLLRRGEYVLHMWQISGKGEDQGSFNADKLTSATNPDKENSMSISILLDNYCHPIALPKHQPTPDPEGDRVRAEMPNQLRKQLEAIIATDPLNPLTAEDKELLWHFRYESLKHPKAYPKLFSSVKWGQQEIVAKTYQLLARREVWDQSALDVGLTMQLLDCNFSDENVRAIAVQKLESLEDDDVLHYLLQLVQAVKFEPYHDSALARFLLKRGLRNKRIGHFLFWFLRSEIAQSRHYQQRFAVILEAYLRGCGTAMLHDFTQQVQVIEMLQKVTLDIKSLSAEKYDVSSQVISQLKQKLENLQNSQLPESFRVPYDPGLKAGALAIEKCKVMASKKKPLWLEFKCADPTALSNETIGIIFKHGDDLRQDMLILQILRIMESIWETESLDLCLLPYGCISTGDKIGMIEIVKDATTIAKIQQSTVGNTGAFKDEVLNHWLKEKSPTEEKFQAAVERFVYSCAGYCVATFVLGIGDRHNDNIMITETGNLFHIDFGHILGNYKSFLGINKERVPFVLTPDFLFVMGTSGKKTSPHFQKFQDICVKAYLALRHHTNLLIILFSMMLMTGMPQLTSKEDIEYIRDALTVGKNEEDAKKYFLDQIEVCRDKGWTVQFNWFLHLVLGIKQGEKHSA
Assay [2] deals with T1, Phosphatidylinositol 4,5-bisphosphate 3-kinase catalytic subunit delta isoform (Homo sapiens, UniProt O00329).
T1 sequence (O00329 whole entry): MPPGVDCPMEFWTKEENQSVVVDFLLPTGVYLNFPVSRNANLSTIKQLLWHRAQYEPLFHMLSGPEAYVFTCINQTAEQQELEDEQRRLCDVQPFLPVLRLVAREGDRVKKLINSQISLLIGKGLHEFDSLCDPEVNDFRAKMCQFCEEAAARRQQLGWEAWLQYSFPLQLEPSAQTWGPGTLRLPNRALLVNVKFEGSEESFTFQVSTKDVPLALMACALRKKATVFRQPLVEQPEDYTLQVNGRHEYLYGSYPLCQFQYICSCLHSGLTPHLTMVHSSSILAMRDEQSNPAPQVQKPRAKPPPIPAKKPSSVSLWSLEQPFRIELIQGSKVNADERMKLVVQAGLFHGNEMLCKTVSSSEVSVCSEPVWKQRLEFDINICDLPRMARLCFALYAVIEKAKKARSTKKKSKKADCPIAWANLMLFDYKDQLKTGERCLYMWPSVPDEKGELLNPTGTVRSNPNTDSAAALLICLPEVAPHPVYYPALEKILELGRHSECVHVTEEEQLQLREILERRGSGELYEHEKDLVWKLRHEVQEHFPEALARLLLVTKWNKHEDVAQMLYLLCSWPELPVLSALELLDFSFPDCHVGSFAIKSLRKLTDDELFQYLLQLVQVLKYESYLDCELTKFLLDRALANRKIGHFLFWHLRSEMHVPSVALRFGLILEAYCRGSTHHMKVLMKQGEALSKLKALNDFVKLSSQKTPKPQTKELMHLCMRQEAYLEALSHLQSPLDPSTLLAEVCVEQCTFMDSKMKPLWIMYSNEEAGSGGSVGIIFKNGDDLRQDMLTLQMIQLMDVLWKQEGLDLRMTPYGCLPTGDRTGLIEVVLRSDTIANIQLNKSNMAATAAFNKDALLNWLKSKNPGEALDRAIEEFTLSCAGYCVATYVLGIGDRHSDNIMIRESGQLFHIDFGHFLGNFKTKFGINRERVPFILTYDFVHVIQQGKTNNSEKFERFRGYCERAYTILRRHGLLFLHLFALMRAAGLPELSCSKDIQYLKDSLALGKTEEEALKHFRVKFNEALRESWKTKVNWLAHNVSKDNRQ
Description: Inhibition of recombinant human PI3Kdelta assessed as reduction in ADP production using Dic8-PIP2 as substrate pre-treated for 15 mins followed by substrate addition measured after 60 mins by ADP-glo assay. For orientation: ADP-Glo first removes unused ATP, then detects ADP through luciferase.

The target of assay [3] is T1, Phosphatidylinositol 4,5-bisphosphate 3-kinase catalytic subunit delta isoform. Nature of the assay: Inhibition of PI3Kdelta in anti-IgM-stimulated human JeKo-1 cells assessed as inhibition of AKT phosphorylation at Ser473 residue incubated for 60 mins by TR-FRET assay. On the technique in general: Time-resolved FRET reads energy transfer from a long-lived donor to a nearby acceptor.

For assay [4], the target named is Phosphatidylinositol 4,5-bisphosphate 3-kinase catalytic subunit alpha isoform (Homo sapiens, UniProt P42336). Nature of the assay: Inhibition of recombinant human PI3Kalpha assessed as reduction in ADP production using Dic8-PIP2 as substrate pre-treated for 15 mins followed by substrate addition measured after 60 mins by ADP-glo assay.
Chain of Phosphatidylinositol 4,5-bisphosphate 3-kinase catalytic subunit alpha isoform (P42336 whole entry, canonical isoform): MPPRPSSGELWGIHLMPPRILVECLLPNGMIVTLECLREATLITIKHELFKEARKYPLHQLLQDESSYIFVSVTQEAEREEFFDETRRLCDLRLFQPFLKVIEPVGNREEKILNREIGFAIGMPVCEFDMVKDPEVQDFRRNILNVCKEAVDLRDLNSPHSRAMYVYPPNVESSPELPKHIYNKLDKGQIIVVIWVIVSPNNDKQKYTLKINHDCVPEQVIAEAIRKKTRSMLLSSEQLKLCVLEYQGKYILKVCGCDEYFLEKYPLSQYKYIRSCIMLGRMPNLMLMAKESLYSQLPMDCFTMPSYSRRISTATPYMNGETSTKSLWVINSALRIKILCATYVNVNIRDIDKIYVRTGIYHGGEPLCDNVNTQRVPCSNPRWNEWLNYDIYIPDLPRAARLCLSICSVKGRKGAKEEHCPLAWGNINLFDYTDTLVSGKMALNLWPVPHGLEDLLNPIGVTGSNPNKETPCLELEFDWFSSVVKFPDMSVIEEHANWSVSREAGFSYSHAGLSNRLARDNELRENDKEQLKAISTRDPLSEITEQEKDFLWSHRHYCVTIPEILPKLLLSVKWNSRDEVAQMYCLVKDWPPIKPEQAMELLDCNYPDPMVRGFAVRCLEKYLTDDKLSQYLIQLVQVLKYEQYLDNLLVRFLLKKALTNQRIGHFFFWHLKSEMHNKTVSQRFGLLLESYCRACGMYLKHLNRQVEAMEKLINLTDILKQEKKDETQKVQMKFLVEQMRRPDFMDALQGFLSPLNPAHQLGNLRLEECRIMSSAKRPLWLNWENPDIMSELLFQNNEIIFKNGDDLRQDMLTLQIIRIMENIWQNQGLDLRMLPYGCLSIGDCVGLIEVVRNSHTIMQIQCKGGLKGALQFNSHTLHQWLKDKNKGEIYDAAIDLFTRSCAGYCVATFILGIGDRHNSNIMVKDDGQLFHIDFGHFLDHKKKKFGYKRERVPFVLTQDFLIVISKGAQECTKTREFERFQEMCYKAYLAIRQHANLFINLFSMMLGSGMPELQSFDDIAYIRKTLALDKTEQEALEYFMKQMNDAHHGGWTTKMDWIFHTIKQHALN
Assay [5] has as its target Phosphatidylinositol 4,5-bisphosphate 3-kinase catalytic subunit gamma isoform (Mus musculus, UniProt Q9JHG7). Nature of the assay: Inhibition of PI3Kgamma in C5a-stimulated mouse RAW 264 cells assessed as inhibition of AKT phosphorylation at Ser473 residue Pretreated for 15 mins followed by C5a stimulation measured after 3 mins by HTRF assay. The format is cell-based.

Chain of Phosphatidylinositol 4,5-bisphosphate 3-kinase catalytic subunit gamma isoform (Mus musculus, UniProt Q9JHG7) (Q9JHG7 whole entry, canonical isoform): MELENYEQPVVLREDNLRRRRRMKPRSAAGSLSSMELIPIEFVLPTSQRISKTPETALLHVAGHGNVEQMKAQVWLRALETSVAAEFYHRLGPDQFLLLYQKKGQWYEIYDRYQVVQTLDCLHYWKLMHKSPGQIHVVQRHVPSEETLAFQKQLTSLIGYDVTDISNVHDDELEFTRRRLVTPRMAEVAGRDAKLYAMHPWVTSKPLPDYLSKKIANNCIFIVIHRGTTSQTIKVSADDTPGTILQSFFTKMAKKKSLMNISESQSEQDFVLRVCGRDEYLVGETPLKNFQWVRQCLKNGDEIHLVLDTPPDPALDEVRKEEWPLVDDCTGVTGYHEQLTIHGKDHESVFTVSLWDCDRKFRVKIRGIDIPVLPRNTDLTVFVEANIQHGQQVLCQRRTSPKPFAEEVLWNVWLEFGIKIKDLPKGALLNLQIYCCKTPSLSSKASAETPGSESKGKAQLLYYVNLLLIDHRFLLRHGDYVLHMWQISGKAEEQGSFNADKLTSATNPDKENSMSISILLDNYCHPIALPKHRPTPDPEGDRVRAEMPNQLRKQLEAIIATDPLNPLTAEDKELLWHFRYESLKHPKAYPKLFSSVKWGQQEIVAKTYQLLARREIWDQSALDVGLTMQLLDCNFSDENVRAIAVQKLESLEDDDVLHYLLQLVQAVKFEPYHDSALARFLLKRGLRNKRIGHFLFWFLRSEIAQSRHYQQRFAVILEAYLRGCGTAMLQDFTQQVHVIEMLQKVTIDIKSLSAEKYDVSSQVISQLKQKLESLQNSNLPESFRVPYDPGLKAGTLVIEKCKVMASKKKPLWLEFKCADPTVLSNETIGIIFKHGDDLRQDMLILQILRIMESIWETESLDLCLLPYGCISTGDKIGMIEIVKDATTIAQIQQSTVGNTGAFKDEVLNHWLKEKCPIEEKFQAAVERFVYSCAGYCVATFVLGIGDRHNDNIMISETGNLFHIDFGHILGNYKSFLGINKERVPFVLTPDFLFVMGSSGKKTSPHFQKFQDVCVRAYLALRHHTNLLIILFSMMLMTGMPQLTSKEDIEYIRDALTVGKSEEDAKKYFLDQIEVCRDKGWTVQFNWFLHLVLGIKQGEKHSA

By IC50 is commonly meant the concentration at which inhibition is half-maximal. In the case of `CNS(=O)(=O)c1cc(-c2sc(Nc3cccc(C)n3)nc2C)cc2c1C(=O)N([C@@H](C)C1CC1)C2`, the 50% inhibitory concentration (IC50) is 1 nM in assay [1] and 50.1 nM in assay [2].

On to `CNS(=O)(=O)c1cc(-c2sc(Nc3cccc(C(=O)NCCCN(C)C)n3)nc2C)cc2c1C(=O)N([C@@H](C)C1CC1)C2`, for which the 50% inhibitory concentration (IC50) in assay [1] was 3.16 nM; in assay [2], 3.98 nM.

Regarding `Cc1nc(Nc2cccc(N3CCCC3=O)n2)sc1-c1cc2c(c(S(=O)(=O)NC3COC3)c1)C(=O)N([C@@H](C)C1CC1)C2`, the IC50 is 5.01 nM in assay [3], 126 nM in assay [4], 0.794 nM in assay [2] and 1 nM in assay [5].

For the compound `CNS(=O)(=O)c1cc(-c2sc(Nc3cccc(N4CCOCC4=O)n3)nc2C)cc2c1C(=O)N([C@@H](C)C1CC1)C2`, the IC50 in assay [3] is 3.98 nM; in assay [4], 39.8 nM; in assay [2], 0.631 nM; in assay [5], 0.794 nM.

As to `Cc1nc(Nc2cccc(N3CCCOC3=O)n2)sc1-c1cc2c(c(S(C)(=O)=O)c1)C(=O)N([C@@H](C)C1CC1)C2`, the 50% inhibitory concentration (IC50) in assay [3] was 3.98 nM; in assay [4] it was 20 nM; in assay [2], 1.26 nM; in assay [5], 1.26 nM.

As for `CC(=O)Nc1nc(C)c(-c2cc3c(c(S(=O)(=O)Nc4cccc(C#N)c4)c2)C(=O)N([C@@H](C)C2CC2)C3)s1`, the half-inhibitory concentration (IC50) in assay [3] was 126 nM; in assay [2], 10 nM.

For `CC(=O)Nc1nc(C)c(-c2cc3c(c(S(=O)(=O)Nc4ccc(S(C)(=O)=O)cc4)c2)C(=O)N([C@@H](C)C2CC2)C3)s1`, the IC50 in assay [1] was 1 nM; in assay [2], 158 nM.

As to `Cc1nc(Nc2cccc(N3CCOCC3=O)n2)sc1-c1cc2c(c(S(C)(=O)=O)c1)C(=O)N([C@@H](C)C1CC1)C2`, in assay [4], the IC50 was 50.1 nM.

For the compound `CNS(=O)(=O)c1cc(-c2sc(Nc3cccc(N4CCCCC4=O)n3)nc2C)cc2c1C(=O)N([C@@H](C)C1CC1)C2`, in assay [4], the half-maximal inhibitory concentration (IC50) was 20 nM.

Take `CNS(=O)(=O)c1cc(-c2sc(Nc3cccc(N4CCCOC4=O)n3)nc2C)cc2c1C(=O)N([C@@H](C)C1CC1)C2`: the IC50 in assay [3] is 2.51 nM; in assay [4], 20 nM; in assay [2] it was 0.631 nM; in assay [5] it was 1 nM.

As for `CNS(=O)(=O)c1cc(-c2sc(Nc3cccc(N4C[C@H](O)CC4=O)n3)nc2C)cc2c1C(=O)N([C@@H](C)C1CC1)C2`, the IC50 was 7.94 nM in assay [3], 1.26 nM in assay [2] and 2 nM in assay [5].

For `CNS(=O)(=O)c1cc(-c2sc(Nc3cccc(N4CC[C@@H](O)C4=O)n3)nc2C)cc2c1C(=O)N([C@@H](C)C1CC1)C2`, the IC50 in assay [3] is 3.98 nM; in assay [4] it was 15.8 nM; in assay [5], 2.51 nM.

On to `CC(=O)Nc1nc(C)c(-c2cc3c(c(S(=O)(=O)Nc4ccccc4)c2)C(=O)N([C@@H](C)C2CC2)C3)s1`, for which the concentration for half-maximal inhibition (IC50) in assay [1] was 1 nM; in assay [2], 50.1 nM.

For the compound `Cc1nc(Nc2cccc(N3CCN(C)C3=O)n2)sc1-c1cc2c(c(S(C)(=O)=O)c1)C(=O)N([C@@H](C)C1CC1)C2`, the IC50 in assay [3] was 3.98 nM; in assay [4], 39.8 nM; in assay [2] it was 0.794 nM; in assay [5], 1 nM.

For the compound `CC(=O)N(C)c1cccc(Nc2nc(C)c(-c3cc4c(c(S(C)(=O)=O)c3)C(=O)N([C@@H](C)C3CC3)C4)s2)n1`, the IC50 in assay [2] is 1.26 nM.

Turning to `CC(=O)Nc1nc(C)c(-c2cc3c(c(S(=O)(=O)Nc4cc(C#N)cc(S(C)(=O)=O)c4)c2)C(=O)N([C@@H](C)C2CC2)C3)s1`, the IC50 in assay [2] was 25.1 nM.

As to `CC(=O)Nc1nc(C)c(-c2cc3c(c(S(=O)(=O)N(C)c4cccc(C#N)c4)c2)C(=O)N([C@@H](C)C2CC2)C3)s1`, the IC50 in assay [1] is 0.794 nM; in assay [2], 50.1 nM.

For `Cc1nc2sc1-c1cc3c(c(c1)S(=O)(=O)Nc1ccc(cc1)CN(C)CCCNC(=O)c1cccc(n1)N2)C(=O)N([C@@H](C)C1CC1)C3`, the IC50 in assay [1] is 7.94 nM; in assay [3], 1.58 nM; in assay [2], 0.794 nM; in assay [5] it was 3.98 nM.

`Cc1nc(Nc2cccc(-c3ocnc3CO)n2)sc1-c1cc2c(c(S(C)(=O)=O)c1)C(=O)N([C@@H](C)C1CC1)C2`: the concentration for half-maximal inhibition (IC50) in assay [1] was 0.631 nM; in assay [2] it was 2 nM.

With `CCN(CC)C(=O)c1cccc(Nc2nc(C)c(-c3cc4c(c(S(=O)(=O)NC)c3)C(=O)N([C@@H](C)C3CC3)C4)s2)n1`, the IC50 is 3.16 nM in assay [1] and 158 nM in assay [2].

As for `CNS(=O)(=O)c1cc(-c2sc(Nc3cccc(N(C)C(C)=O)n3)nc2C)cc2c1C(=O)N([C@@H](C)C1CC1)C2`, the IC50 was 6.31 nM in assay [3], 0.794 nM in assay [2] and 1 nM in assay [5].

Turning to `CNS(=O)(=O)c1cc(-c2sc(Nc3cccc(N4CCNCC4=O)n3)nc2C)cc2c1C(=O)N([C@@H](C)C1CC1)C2`, the IC50 in assay [3] was 6.31 nM; in assay [4] it was 39.8 nM; in assay [2], 0.794 nM; in assay [5], 3.98 nM.

For `COCCNC(=O)c1cccc(Nc2nc(C)c(-c3cc4c(c(S(C)(=O)=O)c3)C(=O)N([C@@H](C)C3CC3)C4)s2)n1`, the values for the concentration for half-maximal inhibition (IC50) in assay [1] and in assay [2] were 0.794 nM and 5.01 nM, respectively.

As for `CNS(=O)(=O)c1cc(-c2sc(Nc3ccc(C(=O)NCCCN(C)C)cn3)nc2C)cc2c1C(=O)N([C@@H](C)C1CC1)C2`, the half-maximal inhibitory concentration (IC50) is 1.26 nM in assay [1] and 6.31 nM in assay [2].

For `CC(=O)Nc1nc(C)c(-c2cc3c(c(S(=O)(=O)Nc4ccc(C#N)cc4)c2)C(=O)N([C@@H](C)C2CC2)C3)s1`, the IC50 was 1 nM in assay [1] and 158 nM in assay [2].

Regarding `CC(=O)Nc1nc(C)c(-c2cc3c(c(S(=O)(=O)Nc4cccc(S(C)(=O)=O)c4)c2)C(=O)N([C@@H](C)C2CC2)C3)s1`, the IC50 in assay [1] was 1.26 nM; in assay [3] it was 31.6 nM; in assay [2], 3.16 nM; in assay [5], 15.8 nM.

In the case of `CC(=O)Nc1nc(C)c(-c2cc3c(c(S(=O)(=O)Nc4cccc(CN(C)C)c4)c2)C(=O)N([C@@H](C)C2CC2)C3)s1`, the IC50 is 2 nM in assay [1] and 15.8 nM in assay [2].

In the case of `CC(=O)Nc1nc(C)c(-c2cc3c(c(S(=O)(=O)N(C)c4ccc(CN(C)C)cc4)c2)C(=O)N([C@@H](C)C2CC2)C3)s1`, the IC50 in assay [1] is 2.51 nM; in assay [2], 25.1 nM.

Turning to `Cc1nc(Nc2cccc(-c3nc(C)n(C)n3)n2)sc1-c1cc2c(c(S(C)(=O)=O)c1)C(=O)N([C@@H](C)C1CC1)C2`, the results for the IC50 in assay [1] and in assay [2] were 1 nM and 25.1 nM, respectively.

Turning to `Cc1nc(-c2cccc(Nc3nc(C)c(-c4cc5c(c(S(C)(=O)=O)c4)C(=O)N([C@@H](C)C4CC4)C5)s3)n2)n(C)n1`, the IC50 in assay [1] was 1 nM; in assay [2], 1.58 nM.

With `CC(=O)Nc1nc(C)c(-c2cc3c(c(S(=O)(=O)Nc4ccc(CN(C)C)cc4)c2)C(=O)N([C@@H](C)C2CC2)C3)s1`, the IC50 was 2.51 nM in assay [1], 50.1 nM in assay [3] and 6.31 nM in assay [2].

With `Cc1nc(Nc2cccc(N3CCCCC3=O)n2)sc1-c1cc2c(c(S(C)(=O)=O)c1)C(=O)N([C@@H](C)C1CC1)C2`, the IC50 in assay [3] was 12.6 nM; in assay [4], 31.6 nM; in assay [2], 1.26 nM; in assay [5], 1.58 nM.

Take `Cc1nc2sc1-c1cc3c(c(c1)S(=O)(=O)Nc1ccc(cc1)CN(C)CCCCNC(=O)c1cccc(n1)N2)C(=O)N([C@@H](C)C1CC1)C3`: the IC50 in assay [1] was 10 nM; in assay [3] it was 1 nM; in assay [2] it was 1 nM; in assay [5], 5.01 nM.

For `Cc1nc(Nc2cccc(N3CCNC3=O)n2)sc1-c1cc2c(c(S(=O)(=O)NC3COC3)c1)C(=O)N([C@@H](C)C1CC1)C2`, the IC50 is 3.16 nM in assay [3], 31.6 nM in assay [4], 0.631 nM in assay [2] and 2 nM in assay [5].

`CC(=O)Nc1cccc(Nc2nc(C)c(-c3cc4c(c(S(C)(=O)=O)c3)C(=O)N([C@@H](C)C3CC3)C4)s2)n1`: the IC50 in assay [1] was 1 nM; in assay [2] it was 15.8 nM.
